Assay results: patent US20130195919A1, “INDUCED DENDRITIC CELL COMPOSITIONS AND USES THEREOF” (PRESIDENT AND FELLOWS OF HARVARD COLLEGE, priority 2010, published 2013)

What was measured:
DC [1] = tested on: DC
DC [2] = assay: DC immunogenicity: OT-II T cell proliferation by CFSE dilution; type: cell-based, mouse; conditions: LPS plus 1 mM rotenone; CFSE dilution on D3
Description: (§1) The effect of direct inhibition of mitochondrial respiration, by an inhibitor of mitochondrial respiratory complex I, rotenone, was tested. […] Control DC were treated with LPS without OVA pulsing. T cell proliferation was analyzed by CFSE dilution on D3.

DC [3] = assay: DC maturation marker expression by FACS; type: cell-based, mouse; conditions: 100 μM, 6 hours
Description: DC were isolated and kept for 6 hours at 4 degrees (ctrlDC 4C) or culture to produce ctrlDC (37C), lpsDC itDC and it/lpsDC. Simultaneously cells were treated with the purinergic receptor agonists ATP (1 mM) and Bz-ATP (100 μM), purinergic receptors antagonists oxidized ATP (oATP, 100 μM) and suranim (100 μM), the adenosine monophosphate kinase (AMPK) stimulator AICAR (100 μM) and the enzyme Apyrase (200 U/ml) that catalyses ATP. Cells were harvested after 6 hours and the expression of the indicated markers was assessed by FACS.

DC [4] = assay: Oxygen consumption rate (OCR) of DC; type: cell-based, mouse; conditions: 2 h activation; oATP with or without LPS co-treatment
Description: Mitochondria oxygen consumption rate (OCR) was measured by using a YSI 5300 Clark-type electrode (Yellow Springs Instrument, Yellow Springs, Ohio, USA) or the XF24 Extracellular Flux Analyzer (Seahorse Bioscience, Billerica, Mass.) following the manufacturer's protocol. Primary cultured DC (10^6 cells/well) were used as described in the experiments.
The effect of the activation of DC on the O2 consumption rate (OCR) was tested to attempt to correlate increased OCR with increased immunogenicity.
as §1

DC [5] = assay: Ex vivo Treg differentiation: Foxp3 induction in Tn by treated DC; type: cell-based, mouse

| Compound | DC maturation (expression of markers) (DC [3]) | OCR of DC (DC [4]) | also measured |
| --- | --- | --- | --- |
| C=C(C)[C@H]1Cc2c(ccc3c2O[C@@H]2COc4cc(OC)c(OC)cc4[C@@H]2C3=O)O1 [rotenone] | – | – | toxicity to DC (maturation markers CD80, C86, MHC-II and migration to CCL21) (DC [1]): not toxic to DC; T cell proliferation induced by antigen pulsed, LPS matured DC (DC [2]): induced much less T cell proliferation |
| NC(=O)c1ncn([C@@H]2O[C@H](CO)[C@@H](O)[C@H]2O)c1N [AICAR, 5-aminoimidazole-4-carboxamide-1-β-4-ribofuranoside] | block DC maturation | – | – |
| Nc1ncnc2c1ncn2[C@@H]1O[C@H](COP(=O)(O)OP(=O)(O)OP(=O)(O)O)[C@@H](O)[C@H]1O [ATP, adenosine triphosphate] | – | enhanced OCR levels in DCs | – |
| Periodate-oxidized ATP [oATP] | block DC maturation | reduced OCR | capacity to imprint DC with tolerogenic potential (percentages of Foxp3 and CD25 expressing cells) (DC [5]; DC incubated 2 hours, oATP 100 μM, 5 days in coculture): significantly imprints DC with tolerogenic potential; tolerogenic capacity compared with the combination of rapamycin and TGFβ (DC [5]; oATP 100 μM vs rapamycin 10 nM and TGFβ 2 ng/ml): matches or exceeds |
